Data set [1] has as its system Mus musculus. As to the kind of experiment: In vivo inhibition of HDAC in C57BL/6 mouse assessed as increase in acetylated-histone H3 level in spleen nuclear protein extracts at 30 mg/kg, ip measured after 60 mins by sandwich ELISA relative to control. It counts as organism-based. The note with it: 1 h. (In an ELISA, binding on a coated surface is turned into a signal by an enzyme label.)

The nature of data set [2]: Stability in human liver S9 fraction assessed as parent compound remaining at 5 uM after 90 mins in presence of NADPH by LC-MS/MS analysis. It counts as ADME, subcellular. The note with it: read-out: Stability.
Data set [3] can be described thus: Apparent volume of distribution at steady state in CD-1 mouse at […], iv measured within 6 hrs by LC-MS/MS analysis. It counts as ADME, organism-based. The note with it: in vivo, read-out: Vdss(app).
The nature of data set [4]: Toxicity in C57BL/6 mouse assessed as effect on WBC level at 50 mg/kg, ip administered for 5 days/week for two cycles and measured 60 mins post last dose by beckman coulter counting method relative to control. The note with it: in vivo, 1 h. The class given is organism-based.
A short description of data set [5]: Toxicity in C57BL/6 mouse assessed as effect on body weight at 50 mg/kg, ip administered for 5 days/week for two cycles and measured every other day relative to control. It counts as organism-based. Particulars: in vivo, 120 h.
A short description of data set [6]: Toxicity in C57BL/6 mouse assessed as effect on grooming up to 50 mg/kg, ip administered for 5 days/week for two cycles. Particulars: in vivo, 120 h. It counts as organism-based.
Data set [7] is described as follows: Inhibition of C57BL/6 mouse effector T cells proliferation at 1 uM after 72 hrs in absence of regulatory T cells by CFSE dye based flow cytometric assay relative to control.
Data set [8] in a line: Toxicity in ip dosed C57BL/6 mouse administered for 5 days/week for two cycles. Particulars: in vivo. The class given is organism-based.
In data set [9] the test system is 697. As to the kind of experiment: Cytotoxicity against human 697 cells after 48 hrs by CellTiter 96 aqueous one solution assay. It counts as cell-based. Particulars: Homo sapiens, 697, 48 h.
Data set [10] in a line: Stability in human plasma assessed as parent compound remaining at 100 uM after 4 hrs by LC-MS/MS analysis. The class given is ADME, cell-free. The note with it: read-out: Stability.
Data set [11] concerns Mus musculus. The experiment in a line: Ratio of in vivo inhibition of HDAC6 in C57BL/6 mouse assessed as fold increase in acetylated tubulin level in spleen cytosolic protein extract to in vivo inhibition of HDAC in C57BL/6 mouse assessed as fold increase in acetylated-histone H3 level in spleen nuclear protein extracts.
The subject of data set [12] is Mus musculus. The experiment in a line: In vivo inhibition of HDAC6 in C57BL/6 mouse assessed as increase in acetylated tubulin level in spleen cytosolic protein extract at 30 mg/kg, ip measured after 24 hrs by ELISA. It counts as functional, organism-based.
In data set [13] the test system is Histone deacetylase. As to the kind of experiment: Inhibition of HDAC in human 697 cells assessed as increase in H3 acetylation at 1000 nM incubated for 16 hrs by ELISA. The class given is cell-based. The note with it: human, 697, 16 h, 1 µM.
For data set [14], the target named is T1, Protein deacetylase HDAC6 (Homo sapiens) (UniProt Q9UBN7).
T1 sequence (whole entry): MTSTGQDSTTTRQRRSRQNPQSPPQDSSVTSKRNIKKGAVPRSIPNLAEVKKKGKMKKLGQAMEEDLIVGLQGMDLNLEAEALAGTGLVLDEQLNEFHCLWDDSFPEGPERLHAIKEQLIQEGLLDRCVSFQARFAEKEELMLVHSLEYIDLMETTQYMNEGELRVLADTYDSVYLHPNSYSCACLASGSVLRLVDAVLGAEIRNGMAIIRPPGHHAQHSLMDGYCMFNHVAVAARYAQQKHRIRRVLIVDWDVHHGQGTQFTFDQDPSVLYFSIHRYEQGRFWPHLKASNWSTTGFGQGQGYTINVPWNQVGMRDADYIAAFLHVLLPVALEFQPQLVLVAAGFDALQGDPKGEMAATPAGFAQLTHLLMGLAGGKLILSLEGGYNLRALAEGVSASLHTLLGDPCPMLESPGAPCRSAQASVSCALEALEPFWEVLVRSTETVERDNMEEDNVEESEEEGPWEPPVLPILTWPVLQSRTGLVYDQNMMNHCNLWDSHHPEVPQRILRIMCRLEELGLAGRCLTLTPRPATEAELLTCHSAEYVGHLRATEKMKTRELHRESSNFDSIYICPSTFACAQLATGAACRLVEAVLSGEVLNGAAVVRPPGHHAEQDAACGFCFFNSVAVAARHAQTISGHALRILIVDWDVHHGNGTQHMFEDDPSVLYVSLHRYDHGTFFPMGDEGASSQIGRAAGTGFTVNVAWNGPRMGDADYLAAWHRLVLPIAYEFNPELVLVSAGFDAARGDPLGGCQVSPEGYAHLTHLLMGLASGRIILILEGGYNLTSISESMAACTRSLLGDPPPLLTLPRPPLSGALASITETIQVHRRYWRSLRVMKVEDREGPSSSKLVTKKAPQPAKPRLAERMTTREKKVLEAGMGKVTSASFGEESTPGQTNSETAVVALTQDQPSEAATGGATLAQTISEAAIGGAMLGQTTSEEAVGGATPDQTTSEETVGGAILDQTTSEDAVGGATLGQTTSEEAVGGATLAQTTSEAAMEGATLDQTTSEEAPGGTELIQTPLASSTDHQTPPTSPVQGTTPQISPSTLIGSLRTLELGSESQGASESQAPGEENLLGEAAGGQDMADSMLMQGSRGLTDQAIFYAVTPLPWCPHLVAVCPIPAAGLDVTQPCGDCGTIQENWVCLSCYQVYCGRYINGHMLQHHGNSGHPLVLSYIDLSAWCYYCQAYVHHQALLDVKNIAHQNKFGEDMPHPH
The experiment in a line: Inhibition of HDAC6 in HEK293 cells harboring human Foxp3 assessed as induction of Foxp3 hyperacetylation in whole cell lysates at 500 nM incubated for 6 hrs by SDS-PAGE based Western blot analysis. The class given is subcellular. Particulars: Lysate. (In general: A western blot detects proteins with antibodies after separation by electrophoresis.)

Data set [15] in a line: Drug level in C57BL/6 mouse plasma at 30 mg/kg, ip measured after 24 hrs. The class given is ADME, organism-based. Particulars: in vivo, BLD = below limit of detection.
Data set [16] in a line: Toxicity in C57BL/6 mouse assessed as effect on body temperature up to 50 mg/kg, ip administered for 5 days/week for two cycles and measured daily starting from day 1. The class given is organism-based. Particulars: in vivo, 120 h.
A short description of data set [17]: Selectivity ratio of IC50 for N-terminal GST-tagged human HDAC7 (518 to end residues) expressed in baculovirus infected sf9 insect cells to IC50 for human N-terminal GST-tagged HDAC6 expressed in baculovirus infected sf9 insect cells.
The nature of data set [18]: Toxicity in C57BL/6 mouse assessed as effect on platelet level at 50 mg/kg, ip administered for 5 days/week for two cycles and measured 60 mins post last dose by cell counter method relative to control. It counts as organism-based. Particulars: in vivo, 1 h.
The test system of data set [19] is PBMC. As to the kind of experiment: Cytotoxicity against human PBMC cells after 72 hrs by CellTiter 96 aqueous one solution assay. It counts as cell-based.
A short description of data set [20]: Stability in rat plasma assessed as parent compound remaining at 100 uM after 4 hrs by LC-MS/MS analysis. It counts as ADME, cell-free. Particulars: read-out: Stability.
Data set [21] in a line: Selectivity ratio of IC50 for N-terminal His-tagged human HDAC11 expressed in baculovirus expression system to IC50 for human N-terminal GST-tagged HDAC6 expressed in baculovirus infected sf9 insect cells.
Data set [22] is described as follows: Selectivity ratio of IC50 for N-terminal Flag-tagged human HDAC10 (2 to 631 residues) expressed in baculovirus infected sf9 insect cells to IC50 for human N-terminal GST-tagged HDAC6 expressed in baculovirus infected sf9 insect cells.

Structures are written as SMILES. Active and inactive are the calls of the source. The rule behind the calls is not given here.

What is called inhibition is the relative decrease from the control value, in per cent. What is called IC50 is the midpoint of a concentration-inhibition curve. Read a low IC50 as higher potency. Regarding `Cn1c(Sc2ccc(C(=O)NO)cc2)nnc1-c1cccs1`, in [1], the “fold change (FC)” value is listed as 3. Moreover, the remaining at […], 5 µM in data set [2] amounted to 95%. In addition, the Vd at 6 h in [3] amounted to 5.4 L/kg. The Activity is -30% in data set [4]; 3.5% in data set [5]; “Non-Toxic” in data set [6]; “Non-Toxic” in [16]; -8% in [18]. This molecule gave an inhibition at 72 h, 1 µM in data set [7] of less than 5%. This molecule displayed an MTD at 120 h in data set [8] of less than 30 mg/kg. Moreover, the IC50 in data set [9] and in data set [19] was more than 1 µM each time. Besides, the remaining at 4 h, 100 µM in data set [10] is 100%; in data set [20] it was 86%. Further, the Ratio in [11] is recorded as 3.5. In addition, the inhibition result in [12] and in [14] was “Active” each time. In addition, the “inhibition (INH)” value in [13] is recorded as “Active”. The Drug uptake entry in data set [15] is given as “Bld”. Also, the “Ratio IC50” value in data set [17] amounted to 99; in [21] it was 119; in [22] it was 343.

(Values after ChEMBL document CHEMBL4414648, “Novel Benzohydroxamate-Based Potent and Selective Histone Deacetylase 6 (HDAC6) Inhibitors Bearing a Pentaheterocyclic Scaffold: Design, Synthesis, and Biological Evaluation” (J Med Chem, 2019).)
